The target in assay [1] is T1, biotinylated AVI-tagged EED (76-441) (Homo sapiens, UniProt O75530).
T1 construct: GST (N, cleaved yes); made in house; host or cells: E. coli BL21(DE3), co-expressed with pGro7
The assay is described as follows: EED binding SPR assay. Conditions: 1:1 binding model; read-out: KD, equilibrium dissociation constant as measured by surface plasmon resonance (SPR). Here is the method: Biotinylated AVI-tagged EED was produced using standard molecular biology techniques. A pGEX plasmid with a GST-preScission-cleavage-site-AVI-EED(76-441) sequence was placed into E. coli BL21(DE3) cells and co-expressed with pGro7. The E. coli were grown in shaker flasks in LB with ampicillin at 37° C. at 110 rpm to an OD600=0.7. At this time the temperature was lowered to 15° C. and IPTG was added to 0.3 mM. The cells were allowed to express overnight. Cells were then harvested.
For purification, the E. coli cell pellet was lysed into a buffer of 50 mM Tris pH 8.0, 500 mM NaCl, 5% glycerol and 5 mM DTT. The lysate was loaded onto a GSTrap FF column from GE Healthcare. After washing, the bound protein was eluted with 50 mM Tris pH 8.0, 500 mM NaCl, 5% glycerol, 5 mM DTT and 15 mM GSH. The collected fractions were combined and incubated with PreScission enzyme overnight at 4° C. The cleaved protein was then passed through a GSTrap FF column in a buffer of 50 mM Tris pH 8.0, 500 mM NaCl, 5% glycerol and 5 mM DTT. The cleaved protein was confirmed through mass spectrometry. The AVI-EED(76-441) was then buffer exchanged into 50 mM Bicine pH 8.3, 10 mM ATP, 10 mM magnesium acetate and 50 μM D-Biotin. 3 mg of BirA enzyme was added to the system and incubated at 4° C. for 2 hours to biotinylate the AVI-EED(76-441). The biotinylated-AVI-EED(76-441) was then buffer exchanged into 20 mM Tris pH 8.0 and 400 mM NaCl and passed through a size exclusion column of Superdex 200 16/60 Increase. The purified monomeric biotinylated-AVI-EED(76-441) was confirmed through SDS-PAGE, LC-MS and analytical size exclusion chromatography.
All surface plasmon resonance (SPR) assays were performed using a GE Biacore S200 utilizing GE Biotin CAPture chips. Capturing of CAP reagents was performed with a flow rate of 2 μL/min for 90 seconds. For protein capturing, a solution of 50 μg/mL of biotinylated AVI-tagged EED (76-441) in 10 mM HEPES pH 7.4, 150 mM NaCl, 0.05% Tween 20 and 2% DMSO (Running Buffer) was flowed over the chip with a flow rate of 5 μL/min for a contact time of 30 seconds. Final readings were 2200-2400 RU. For compounds, 7 concentrations were made with 3-dilutions using the Running Buffer for a total of 300 μL of each concentration in a 96-well microplate. During the binding experiments, a flow rate of […] was used for an association time of 90 seconds followed by a disassociation time of 180 seconds. The compartment temperature was set at 10° C. with the chip at 25° C. During regeneration the flow rate was set to 30 μL/min for 30 seconds. All fittings were done using a 1:1 binding model.

For assay [2], the system named is human P-glycoprotein HEK cells (HEK-P-gp). The assay is described as follows: H3K27me3 immunocytochemistry assay in P-gp expressing HEK293T cells, with or without elacridar. The class given is cell-based. Conditions: Homo sapiens, 4 days compound treatment. Here is the method: A plasmid encoding the human ABCB1 gene under the control of a CMV promoter was purchased from Origene (Cat #RC216080). The HEK293T cells were purchased from ATCC (Cat #CRL-3216) and were cultured for expansion in the recommended conditions. The HEK293T cells were transfected with 2 ug of the pCMV-ABCB1 plasmid using Lipofectamine 3000 following recommendations from the manufacturer (ThermoFisher Scientific, Cat #L3000008). After 24 h, cells were dissociated, and 5000 cells were seeded on a 10 cm tissue culture dish. On the next day, fresh media containing 5 nM Vinblastine (Sigma, Cat #V1377) was added, and media containing compound was replenished every 72 h. After surviving cells reached confluency, cells were passaged, and lines were maintained in the presence of 2.5 nM Vinblastine until further characterization.
P-gp expressing HEK293T, HUDEP2, and Human Mobilized Peripheral Blood Primary CD34+ cells were cultured for use in an H3K27me3 immunocytochemistry assay. HUDEP2 and Human Mobilized Peripheral Blood Primary CD34+ cells were cultured for use in an HbF immunocytochemistry assay. P-gp expressing HEK293T cells were maintained and passaged every 3-4 days by plating 300,000 viable cells in a T-25 culture flask containing 6 mLs of 293 Passaging Media comprised of DMEM (ThermoFisher #10566016), 10% fetal bovine serum (ThermoFisher #A3160502), 1% penicillin-streptomycin (ThermoFisher #15140122), and 2.5 nM Vinblastine (Sigma #V1377). To evaluate the inhibitory effect of the compounds of the present disclosure and their brain penetrant properties via P-gp mediated efflux, the H3K27me3 immunocytochemistry assay was conducted in the presence or absence of 250 nM of the P-gp inhibitor, elacridar. Poor brain penetrant compounds were expected to show higher potencies in the presence of Elacridar. However, brain penetrant compounds would show similar potencies irrespective of whether Elacridar is present or not. In these experiments plates without elacridar were seeded with P-gp expressing HEK293T cells at 1000 viable cells per well in a poly-d-lysine coated 384-well plate (Corning Cat #356697) in 45 μL of 293 Assay Media comprised of DMEM (ThermoFisher #10566016), 10% fetal bovine serum (ThermoFisher #A3160502), 1% penicillin-streptomycin (ThermoFisher #15140122). A replicate set of plates were seeded under the same conditions with 45 μL of 293 Assay Media supplemented with 250 nM of Elacridar to inhibit P-gp activity. Compounds were serially diluted at 10× concentration in 293 Media, and 5 μL transferred to their respective wells on both sets of plates for a total volume of 50 μL per well. The compound treated HEK293T cells were allowed to incubate for 4 days at 37° C., 85% relative humidity, and 5% CO2 before proceeding to ICC Fix and Stain protocol.
The Fix and Stain Protocol was the same for HEK293T, HUDEP2, and Primary CD34+ cell assays except the specific primary and secondary antibodies used for detection. Following 4 days of compound treatment, the respective plates were washed once with 25 μL of PBS (ThermoFisher #10010023) and fixed with 25 μL of 4% paraformaldehyde (ThermoFisher #28908) for 10 minutes at room temperature. The plates were then washed three times with 25 μL of PBS. Subsequent to that, the cells were permeabilized and blocked for 1 hour at room temperature in 25 μL of Perm/Block buffer comprised of IX PBS, 1% bovine serum albumin (ThermoFisher #A3294), 10% fetal bovine serum (ThermoFisher #A3160502), 0.3M glycine (Sigma #G7126), and 0.1% tween-20 (Sigma #P7949). This was followed by additional washing (three times) of the plates with 25 μL of 0.1% tween in PBS.
For the H3K27me3 assay, the cells were incubated overnight at 4° C. with 25 μL of H3K27me3 Primary Antibody (Cell Signaling #9733) diluted 1:200 in 0.1% tween-20 in PBS. […]

Setting [3] is: HEK293, 96 h, without elacridar, read-out: IC50, inhibitory activity on human P-glycoprotein HEK cells (HEK-P-gp).
Where [4] appears, read: HEK293, with 250 nM elacridar, read-out: IC50, inhibitory activity on human P-glycoprotein HEK cells (HEK-P-gp) pretreated with elacridar.

Where two headings read alike, the source gives them in different places.

T1 sequence (O75530 76-441 limits assumed): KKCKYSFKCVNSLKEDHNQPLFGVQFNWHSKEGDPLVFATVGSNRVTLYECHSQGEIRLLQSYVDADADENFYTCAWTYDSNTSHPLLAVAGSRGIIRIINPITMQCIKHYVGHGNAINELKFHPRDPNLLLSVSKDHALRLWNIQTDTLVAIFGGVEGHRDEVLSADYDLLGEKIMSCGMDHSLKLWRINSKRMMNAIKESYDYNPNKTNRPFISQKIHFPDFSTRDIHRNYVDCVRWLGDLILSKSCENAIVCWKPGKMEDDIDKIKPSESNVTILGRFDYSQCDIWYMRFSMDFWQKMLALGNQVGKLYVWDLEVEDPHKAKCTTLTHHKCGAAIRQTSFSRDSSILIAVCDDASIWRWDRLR

Usually Kd stands for the concentration at which binding is half-saturated. What is called IC50 is the midpoint of a concentration-inhibition curve. Consider `Cc1cn(C)c(-c2cc3c(n4cnnc24)NCc2c(F)ccc4c2C(CO4)CO3)n1` (stereo in doubt) [Compound 135, (S)-4-(1,4-dimethyl-1H-imidazol-2-yl)-12-fluoro-7a,8,13,14-tetrahydro-7H-[1,2,4]triazolo[4',3':1,6]pyrido]3,2-b]benzofuro[4,3-fg][1,4]oxazonine], for which the Kd in assay [1] was under 2.5 nM. Besides, the IC50 in assay [2] (setting [3]) and in assay [2] (setting [4]) was 50 to 100 nM throughout.
In the case of `Cc1ccnc(-c2cc3c(n4cnnc24)NCc2c(F)ccc4c2C(CO4)CO3)c1` (stereo in doubt) [Compound 149, (S)-12-fluoro-4-(4-methylpyridin-2-yl)-7a,8,13,14-tetrahydro-7H-[1,2,4]triazolo[4',3':1,6]pyrido]3,2-b]benzofuro[4,3-fg][1,4]oxazonine], in assay [1], the Kd was 10 to 50 nM. The IC50 in assay [2] (setting [3]) and in assay [2] (setting [4]) was over 500 nM each time.
`Cc1ccc(C(F)F)c(-c2cc3c(n4cnnc24)NCc2c(F)ccc4c2[C@@H](CO4)CO3)n1` [Compound 144]: the equilibrium dissociation constant (Kd) in assay [1] was in the range of 2.5 to 5 nM. Moreover, the half-maximal inhibitory concentration (IC50) in assay [2] (setting [3]) and in assay [2] (setting [4]) was 100 to 500 nM each time.
On to `COc1cccnc1-c1cc2c(n3cnnc13)NCc1c(F)ccc3c1[C@@H](CO3)CO2` [Compound 159, (S)-12-fluoro-4-(3-methoxypyridin-2-yl)-7a,8,13,14-tetrahydro-7H-[1,2,4]triazolo[4′,3′:1,6]pyrido[3,2-b]benzofuro[4,3-fg][1,4]oxazonine], for which the Kd in assay [1] lay within 10 to 50 nM. Moreover, the IC50 in assay [2] (setting [3]) and in assay [2] (setting [4]) was over 500 nM throughout.
Regarding `Cc1cc(-c2cc3c(n4cnnc24)NCc2c(F)ccc4c2[C@@H](CO4)CO3)ncn1` [Compound 161, (S)-12-fluoro-4-(6-methylpyrimidin-4-yl)-7a,8,13,14-tetrahydro-7H-[1,2,4]triazolo[4′,3′:1,6]pyrido[3,2-b]benzofuro[4,3-fg][1,4]oxazonine], the Kd in assay [1] lay within 5 to 10 nM. The IC50 in assay [2] (setting [3]) and in assay [2] (setting [4]) was over 500 nM in each case.
With `Cc1cncnc1-c1cc2c(n3cnnc13)NCc1c(F)ccc3c1[C@@H](CO3)CO2` [Compound 162, (S)-12-fluoro-4-(5-methylpyrimidin-4-yl)-7a,8,13,14-tetrahydro-7H-[1,2,4]triazolo[4′,3′:1,6]pyrido[3,2-b]benzofuro[4,3-fg][1,4]oxazonine], in assay [1], the Kd lay in the range of 2.5 to 5 nM. Also, the concentration for half-maximal inhibition (IC50) is 25 to 50 nM in assay [2] (setting [3]) and 50 to 100 nM in assay [2] (setting [4]).
Regarding `Fc1ccc2c3c1CNc1c(cc(-c4ncncc4Cl)c4nncn14)OC[C@@H]3CO2` [Compound 163, (S)-4-(5-chloropyrimidin-4-yl)-12-fluoro-7a,8,13,14-tetrahydro-7H-[1,2,4]triazolo[4′,3′:1,6]pyrido[3,2-b]benzofuro[4,3-fg][1,4]oxazonine], the dissociation constant (Kd) in assay [1] is under 2.5 nM. The half-maximal inhibitory concentration (IC50) in assay [2] (setting [3]) lay within 100 to 500 nM; in assay [2] (setting [4]), 25 to 50 nM.
Consider `Cc1cc(Cl)cnc1-c1cc2c(n3cnnc13)NCc1c(F)ccc3c1[C@@H](CO3)CO2` [Compound 166, (S)-4-(5-chloro-3-methylpyridin-2-yl)-12-fluoro-7a,8,13,14-tetrahydro-7H-[1,2,4]triazolo[4′,3′:1,6]pyrido[3,2-b]benzofuro[4,3-fg][1,4]oxazonine], for which the Kd in assay [1] lay in the range of 2.5 to 5 nM. Further, the half-inhibitory concentration (IC50) in assay [2] (setting [3]) and in assay [2] (setting [4]) was over 500 nM in each case.
For `Cn1ncc(C#N)c1-c1cc2c(n3cnnc13)NCc1c(F)ccc3c1C(CO3)CO2` [Compound 170, (S)-5-(12-fluoro-7a,8,13,14-tetrahydro-7H-[1,2,4]triazolo[4′,3′:1,6]pyrido[3,2-b]benzofuro[4,3-fg][1,4]oxazonin-4-yl)-1-methyl-1H-pyrazole-4-carbonitrile], the dissociation constant Kd in assay [1] is under 2.5 nM. Besides, the IC50 in assay [2] (setting [3]) and in assay [2] (setting [4]) was 100 to 500 nM each time.
`Fc1ccc2c3c1CNc1c(cc(-c4cnn5c4CCC5)c4nncn14)OC[C@@H]3CO2` [Compound 171, (S)-4-(5,6-dihydro-4H-pyrrolo[1,2-b]pyrazol-3-yl)-12-fluoro-7a,8,13,14-tetrahydro-7H-[1,2,4]triazolo[4',3':1,6]pyrido[3,2-b]benzofuro [4,3-fg][1,4] oxanzonine]: the equilibrium dissociation constant (Kd) in assay [1] was under 2.5 nM. In addition, the IC50 in assay [2] (setting [3]) and in assay [2] (setting [4]) was over 500 nM throughout.
Turning to `Cn1nccc1-c1cc2c(n3cc(C(=O)O)nc13)NCc1c(F)ccc3c1[C@@H](CO3)CO2` [Compound 174, (S)-5-fluoro-12-(1-methyl-1H-pyrazol-5-yl)-6,7,15,15a-tetrahydro-1H-benzofuro[4,3-fg]imidazo[r,2′:1,6]pyrido[3,2-b][1,4]oxazonine-10-carboxylic acid], in assay [1], the Kd lay within 5 to 10 nM.
On to `Cc1ncccc1-c1cc2c(n3cc(C(=O)O)nc13)NCc1c(F)ccc3c1[C@@H](CO3)CO2` [Compound 177, (S)-5-fluoro-12-(2-methylpyridin-3-yl)-6,7,15,15a-tetrahydro-1H-benzofuro[4,3-fg]imidazo[r,2′:1,6]pyrido[3,2-b][1,4]oxazonine-10-carboxylic acid], for which the Kd in assay [1] is 10 to 50 nM. Besides, the IC50 in assay [2] (setting [3]) and in assay [2] (setting [4]) was over 500 nM in each case.

The values are drawn from US20220160686A1, “MACROCYCLIC AZOLOPYRIDINE DERIVATIVES AS EED AND PRC2 MODULATORS” (Fulcrum Therapeutics, Inc., priority 2019, published 2022).
